Assay results published in article PMC6983058, “Biologically Active Echinulin-Related Indolediketopiperazines from the Marine Sediment-Derived Fungus Aspergillus niveoglaucus” (Molecules, 2019).
Entries after “also recorded” stand apart in the source; their conditions may differ. Like-named read-outs stand apart in the source and are kept apart here.

How the values were obtained:
[1] = DPPH-radical scavenger assay (cell-free); type: biochemical; conditions: MeOH, 30 min
Protocol: The DPPH radical scavenging activities of the compounds were tested as described.
The compounds were dissolved in MeOH, and the solutions (120 µL) were dispensed into wells of a 96-well microplate. In all, 30 µL of the DPPH (Sigma-Aldrich, Steinheim, Germany) solution in MeOH (7.5 × 10^−3 M) was added to each well. The concentrations of the test compounds in the mixtures were 10 and 100 µM. The mixtures were shaken and left to stand for 30 min, and the absorbance of the resulting solutions was measured at 520 nm with a microplate reader MultiscanFC (ThermoScientific, Waltham, MA, USA). The radical scavenging activities of the compounds at 100 µM are presented as % relative to the control (MeOH alone), and the concentration scavenging 50% of the DPPH radical (EC50) was calculated for each compound.

Neuro-2a cells [2] = experiment: 6-OHDA-induced cell model of Parkinson's disease (viability, MTT); type: cell-based, murine; conditions: 10 µM compound 1 h pretreatment, 6-OHDA 50 µM, 24 h
[3] = MTT cytotoxicity assay, Neuro-2a cells; conditions: mouse
Protocol: (§3) Neuro-2a cells were cultured in DMEM medium containing 10% fetal bovine serum (Biolot, St. Petersburg, Russia) and 1% penicillin/streptomycin (Invitrogen, Carlsbad, CA, USA). Cells were incubated at 37 °C in a humidified atmosphere containing 5% (v/v) CO2 [43].
(§4) The in vitro cytotoxicities of the individual substances were evaluated using an MTT (3-(4,5-dimethylthiazol-2-yl)-2,5-diphenyltetrazolium bromide) assay, which was performed according to the manufacturer’s instructions (Sigma-Aldrich, St. Louis, MO, USA). […] Docetaxel was used as a reference substance.

Neuro-2a cells [4] = experiment: Rotenone-induced cell model of Parkinson's disease (viability, MTT); conditions: 10 µM compound 1 h pretreatment, rotenone 10 µM, 24 h
Protocol: (§5) Neuroblastoma Neuro-2a line cells (1 × 10^4 cells/well) were treated with the test compounds at concentrations of 10 µM for 1 h, and then the neurotoxins at different concentrations were added to the neuroblastoma cell suspensions [40]. Rotenone (Sigma-Aldrich, USA) was used at 10 µM. Paraquat (Sigma-Aldrich, USA) was used at 500 µM. […] Cells incubated without neurotoxins and the test compounds and cells incubated with neurotoxins only were used as positive and negative controls, respectively. After 24 h of incubation, the cell viabilities were measured using the MTT method.

Neuro-2a cells [5] = experiment: Paraquat-induced cell model of Parkinson's disease (viability, MTT); conditions: 10 µM compound 1 h pretreatment, paraquat 500 µM, 24 h
Protocol: as §5

[6] = cell-free, cited from earlier work; for IC50: read-out: DPPH Scavenger Activity IC50
[7] = MTT cytotoxicity assay, 22Rv1 cells; type: cell-based; conditions: human
Protocol: (§1) 22Rv1, PC-3, and LNCaP cell lines were cultured according to the manufacturer’s instructions in 10% FBS/RPMI media (Invitrogen, Carlsbad, CA, USA). Cells were continuously kept in culture for a maximum of 3 months and were routinely inspected microscopically for stable phenotypes and regularly checked for contamination with mycoplasma. Cell line authentication was performed by DSMZ (Braunschweig, Germany) using highly polymorphic short tandem repeat loci.
(§2) Docetaxel was used as a reference substance.

[8] = MTT cytotoxicity assay, PC-3 cells; type: cell-based; conditions: human
Protocol: as §1, §2

[9] = MTT cytotoxicity assay, LNCaP cells; type: cell-based; conditions: human
Protocol: as §1, §2

Neuro-2a cells [10] = experiment: ROS level in paraquat-treated Neuro-2a cells (H2DCF-DA); type: cell-based, murine; conditions: 10 µM compound 1 h, then paraquat 500 µM 1 h; neurotoxin alone 148.4 ± 6.9
Protocol: Cell suspensions (1×10^4 cells/well) were incubated with solutions of the test compound (10 µM) for 1 h. Then, 6-hydroxydopamine solution (Sigma-Aldrich, 50 µM) or paraquat solution (Sigma-Aldrich, 500 µM) were added to each well. After 30 min (for 6-hydroxydopamine) or 1 h (for paraquat), 20 μL of 2,7-dichlorodihydrofluorescein diacetate (H2DCF-DA) solution (Molecular Probes, final concentration […]) was added to each well, and the microplate was incubated for an additional 10 min at 37 °C. The intensity of dichlorofluorescin fluorescence was measured at λex = 485 nm and λem = 518 nm. The results are presented as % relative to the control.

[11] = biological target: T1, urease from Canavalia ensiformis (Canavalia ensiformis, UniProt P07374); experiment: Cell-free urease inhibition assay (indophenol method); type: biochemical
T1 construct: purchased Sigma

Staphylococcus aureus = test system: Staphylococcus aureus; design: method as in Du et al. (supplement ref 5); conditions: ref Du et al. (supplement ref 5); cited from earlier work
RAW264.7 cells = conditions: murine macrophage RAW264.7; potency similar to that in Neuro-2a; cited from earlier work
in vitro = conditions: mouse
Protocol: as §3, §4

T1 sequence (P07374 whole entry, looked up): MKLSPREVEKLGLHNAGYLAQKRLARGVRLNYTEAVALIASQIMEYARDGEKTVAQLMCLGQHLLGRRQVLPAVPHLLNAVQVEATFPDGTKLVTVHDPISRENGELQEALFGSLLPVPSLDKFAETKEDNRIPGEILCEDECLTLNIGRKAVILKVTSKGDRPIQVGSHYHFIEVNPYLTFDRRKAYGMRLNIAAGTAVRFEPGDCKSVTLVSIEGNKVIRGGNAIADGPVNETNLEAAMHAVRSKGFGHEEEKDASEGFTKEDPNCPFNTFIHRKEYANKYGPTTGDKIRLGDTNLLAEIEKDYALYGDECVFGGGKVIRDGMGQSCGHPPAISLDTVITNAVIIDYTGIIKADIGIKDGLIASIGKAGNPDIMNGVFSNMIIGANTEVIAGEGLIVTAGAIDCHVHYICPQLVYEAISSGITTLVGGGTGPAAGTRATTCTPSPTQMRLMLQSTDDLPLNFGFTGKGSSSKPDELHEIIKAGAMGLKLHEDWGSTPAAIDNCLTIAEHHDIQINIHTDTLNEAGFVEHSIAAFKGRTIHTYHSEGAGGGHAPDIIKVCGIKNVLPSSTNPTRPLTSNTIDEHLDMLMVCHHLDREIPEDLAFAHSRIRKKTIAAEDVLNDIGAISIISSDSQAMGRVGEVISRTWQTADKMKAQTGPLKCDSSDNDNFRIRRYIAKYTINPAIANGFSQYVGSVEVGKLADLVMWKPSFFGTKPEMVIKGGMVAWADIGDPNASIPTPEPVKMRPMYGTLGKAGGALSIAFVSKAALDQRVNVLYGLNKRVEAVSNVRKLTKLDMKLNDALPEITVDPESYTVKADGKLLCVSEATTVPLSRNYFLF

C=CC(C)(C)c1[nH]c2cc(CC=C(C)C)ccc2c1/C=C1\NC(=O)[C@]2(C[C@H](C)C=C[C@@H]2/C=C/c2c(O)cc(CC=C(C)C)c(O)c2C=O)NC1=O [Compound 1a, (+)-Cryptoechinuline B]
DPPH Scavenger Activity IC50 [1]: weak
IC50 [1]: 122 ± 7.1 µM
increase in viability of 6-OHDA-treated cells (Neuro-2a cells [2]): neuroprotective activity
viability at 10 µM (Neuro-2a cells [2]; Mus musculus, N2a, read-out: increase in viability of 6-OHDA-treated cells): 40.7%
IC50 [3]: > 100 µM
increase in viability of rotenone-treated cells (Neuro-2a cells [4]): neuroprotective activity; also recorded: significant increases
increase in viability of PQ-treated cells (Neuro-2a cells [5]): neuroprotective activity

C=CC(C)(C)c1[nH]c2cc(CC=C(C)C)ccc2c1/C=C1\NC(=O)[C@@]2(C[C@@H](C)C=C[C@H]2/C=C/c2c(O)cc(CC=C(C)C)c(O)c2C=O)NC1=O [Compound 1b, (−)-Cryptoechinuline B]
DPPH Scavenger Activity IC50 [1]: weak
IC50 [1]: 118 ± 4.7 µM
increase in viability of 6-OHDA-treated cells (Neuro-2a cells [2]): inactive
IC50 [3]: > 100 µM
increase in viability of rotenone-treated cells (Neuro-2a cells [4]): inactive
increase in viability of PQ-treated cells (Neuro-2a cells [5]): protected

C=CC(C)(C)c1[nH]c2ccccc2c1C=C1NC(=O)C2(CC(C)C=CC2C=Cc2c(O)cc(CC=C(C)C)c(O)c2C=O)NC1=O (centres unmarked) [Compound 2, cryptoechinuline D]
increase in viability of 6-OHDA-treated cells (Neuro-2a cells [2]): did not show any cytoprotective effects
DPPH Scavenger Activity IC50 [6]: strong
IC50 [6]: 23.6 µM
IC50 [3]: > 100 µM
increase in viability of rotenone-treated cells (Neuro-2a cells [4]): did not show any cytoprotective effects
increase in viability of PQ-treated cells (Neuro-2a cells [5]): did not show any cytoprotective effects

C=CC(C)(C)c1[nH]c2c(CC=C(C)C)cc(CC=C(C)C)cc2c1C[C@@H]1NC(=O)[C@H](C)NC1=O [Compound 3, echinulin]
IC50 [7]: 63.2 µM
IC50 [8]: 41.7 µM
IC50 [9]: 25.9 µM
ROS Level, % of Control, Paraquat (PQ) (Neuro-2a cells [10]): 90.3 ± 2.2 % of Control
IC50 [11]: 29.8 µM
IC50 [6]: 29.9 µM
antibacterial activity against Staphylococcus aureus (Staphylococcus aureus): antibacterial activity
IC50 [3]: > 100 µM
increase in viability of rotenone-treated cells (Neuro-2a cells [4]): inactive
increase in viability of PQ-treated cells (Neuro-2a cells [5]): inactive

C=CC(C)(C)c1[nH]c2ccccc2c1/C=c1\[nH]c(=O)c(=C)[nH]c1=O [Compound 4, neoechinulin B]
ROS Level, % of Control, Paraquat (PQ) (Neuro-2a cells [10]): 101.8 ± 7.6 % of Control
IC50 [6]: 34 µM
cytotoxicity against RAW264.7 cells (RAW264.7 cells): cytotoxic
IC50 [3]: 50.9 µM
increase in viability of rotenone-treated cells (Neuro-2a cells [4]): cytoprotective activity; also recorded: significant increases
increase in viability of PQ-treated cells (Neuro-2a cells [5]): inactive

C=CC(C)(C)c1[nH]c2cc(CC=C(C)C)ccc2c1/C=c1\[nH]c(=O)c(=C)[nH]c1=O [Compound 5, neoechinulin C]
ROS Level, % of Control, Paraquat (PQ) (Neuro-2a cells [10]): 97.4 ± 2.8 % of Control
IC50 [6]: 31.1 µM
IC50 [3]: 40.6 µM
increase in viability of rotenone-treated cells (Neuro-2a cells [4]): not active
increase in viability of PQ-treated cells (Neuro-2a cells [5]): protected

C=CC(C)(C)c1[nH]c2ccccc2c1/C=C1\NC(=O)C(=O)NC1=O [Compound 6, neoechinulin E]
ROS Level, % of Control, Paraquat (PQ) (Neuro-2a cells [10]): 94.1 ± 2.9 % of Control
IC50 [6]: 46 µM
IC50 (in vitro): > 100 µM
increase in viability of rotenone-treated cells (Neuro-2a cells [4]): significant increases

C=CC(C)(C)c1[nH]c2cc(CC=C(C)C)ccc2c1/C=C1\NC(=O)C(=O)NC1=O [Compound 7, neoechinulin]
IC50 [7]: 49.9 µM
IC50 [8]: 63.8 µM
IC50 [9]: 38.9 µM
IC50 [1]: 62.6 ± 1.1 µM
IC50 [3]: > 100 µM
increase in viability of rotenone-treated cells (Neuro-2a cells [4]): not active
increase in viability of PQ-treated cells (Neuro-2a cells [5]): inactive

CC(=O)O[C@@]12CO[C@@H]1C[C@H](O)[C@@]1(C)C(=O)[C@H](O)C3=C(C)[C@@H](OC(=O)[C@H](O)[C@@H](NC(=O)OC(C)(C)C)c4ccccc4)C[C@@](O)([C@@H](OC(=O)c4ccccc4)[C@H]21)C3(C)C [Docetaxel, reference compound]
IC50 [9]: 0.004 µM

NC(N)=S [Thiourea, reference compound]
IC50 ([11]; cell-free, 0.2-100.0 µM tested, pH 7.3-7.5, read-out: urease inhibition IC50): 23 µM
